From the supplement of paper PMC10307832

Assays:
Assay in all cases: relative viability (nuclei count vs DMSO), 5 days (fraction); higher = more cells survive
[1] = compound: CC1=CC=C(C=C1)C(=O)CN2C3=C(CCCC3)SC2=N [Pifithrin_alpha] + CS(=O)(=O)N1CCN(Cc2cc3nc(-c4cccc5[nH]ncc45)nc(N4CCOCC4)c3s2)CC1 [Pictilisib] (partner 1 µM)
In short: (§1)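 Nuclei were stained with Hoechst during a one-step fixation (final 0.05% Triton X-100, 1% formaldehyde, 1 ug/ml Hoechst) carried out 5 days after dosing, then counted on 4× images. The cells, lung cancer lines in 1536-well plates, had been dosed by pin tool the day after seeding with one drug alone or a fixed anchor-drug dose plus five library-drug doses (not always all listed) in √10 steps. Relative viability is the nuclei count in treated wells divided by that in vehicle wells, and each value is the median of duplicate plates.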

Bemcentinib + Navitoclax = compound: Nc1nc(Nc2ccc3c(c2)CC[C@@H](N2CCCC2)CC3)nn1-c1cc2c(nn1)-c1ccccc1CCC2 [Bemcentinib] + CC1(C)CCC(c2ccc(Cl)cc2)=C(CN2CCN(c3ccc(C(=O)NS(=O)(=O)c4ccc(N[C@H](CCN5CCOCC5)CSc5ccccc5)c(S(=O)(=O)C(F)(F)F)c4)cc3)CC2)C1 [Navitoclax] (partner 0.5 µM)
In short: as §1

[2] = compound: CC1=CC=C(C=C1)C(=O)CN2C3=C(CCCC3)SC2=N [Pifithrin_alpha] + CC(=O)c1c(C)c2cnc(Nc3ccc(N4CCNCC4)cn3)nc2n(C2CCCC2)c1=O [Palbociclib] (partner 0.5 µM)
In short: as §1

Bemcentinib + Linsitinib = compound: Nc1nc(Nc2ccc3c(c2)CC[C@@H](N2CCCC2)CC3)nn1-c1cc2c(nn1)-c1ccccc1CCC2 [Bemcentinib] + C[C@]1(O)C[C@@H](c2nc(-c3ccc4ccc(-c5ccccc5)nc4c3)c3c(N)nccn32)C1 [Linsitinib] (partner 1 µM)
In short: as §1

Row | Cell Line | relative viability ([1]; first compound 1 µM) | relative viability ([1]; first compound 3.162 µM) | relative viability ([1]; first compound 10 µM) | relative viability ([1]; first compound 31.62 µM) | relative viability ([1]; first compound 100 µM) | relative viability (Bemcentinib + Navitoclax; first compound 0.04 µM) | relative viability (Bemcentinib + Navitoclax; first compound 0.1265 µM) | relative viability (Bemcentinib + Navitoclax; first compound 0.4 µM) | relative viability (Bemcentinib + Navitoclax; first compound 1.265 µM) | relative viability (Bemcentinib + Navitoclax; first compound 4 µM) | relative viability ([2]; first compound 1 µM) | relative viability ([2]; first compound 3.162 µM) | relative viability ([2]; first compound 10 µM) | relative viability ([2]; first compound 100 µM) | relative viability (Bemcentinib + Linsitinib; first compound 0.04 µM) | relative viability (Bemcentinib + Linsitinib; first compound 0.1265 µM) | relative viability (Bemcentinib + Linsitinib; first compound 0.4 µM) | relative viability (Bemcentinib + Linsitinib; first compound 1.265 µM) | relative viability (Bemcentinib + Linsitinib; first compound 4 µM) | relative viability ([2]; first compound 31.62 µM)
1 | NCI-H441 | 0.552 | 0.582 | 0.624 | 0.436 | 0.438 | 0.504 | 0.752 | 0.637 | 0.59 | 0.598 | 0.203 | 0.249 | 0.217 | 0.19 | 0.525 | 0.702 | 0.76 | 0.496 | 0.581 | 
2 | LOU-NH91 | 0.473 | 0.476 | 0.444 | 0.442 | 0.371 | 0.639 | 0.728 | 0.625 | 0.674 | 0.722 | 0.471 | 0.537 | 0.516 | 0.523 | 0.942 | 0.895 | 0.959 | 0.943 | 0.956 | 0.491
3 | NCI-H647 |  | 0.413 | 0.37 | 0.226 | 0.341 | 1.14 | 1.36 | 1.15 | 1.03 | 1.09 | 0.376 | 0.364 | 0.353 | 0.285 | 1.17 | 1.35 | 1.12 | 1.28 | 1.17 | 0.269
4 | NCI-H1915 | 0.763 | 0.902 | 0.775 |  | 0.838 | 0.805 | 0.81 | 0.817 | 0.788 | 0.788 | 0.532 | 0.517 | 0.522 | 0.452 | 1.05 | 1.13 | 1.1 | 1.11 | 1.1 | 
5 | NCI-H1944 | 0.314 | 0.341 | 0.307 |  | 0.308 | 0.964 | 1.02 | 1.04 | 0.977 | 1.08 | 0.326 | 0.303 | 0.277 | 0.284 | 1.25 | 1.08 | 1.28 | 1.16 | 1.1 | 0.233
6 | NCI-H1792 | 0.156 | 0.244 | 0.205 | 0.178 | 0.217 | 0.668 | 0.57 | 0.859 | 0.697 | 0.665 |  | 0.589 | 0.637 | 0.669 | 0.539 | 0.441 | 0.676 | 0.645 | 0.556 | 0.535
7 | HARA | 0.335 | 0.275 | 0.4 | 0.234 | 0.251 | 1.18 | 1.18 | 1.2 | 1.13 | 1.16 | 0.219 | 0.266 | 0.26 | 0.226 | 1.01 | 1.07 | 1.01 | 0.994 | 1.05 | 0.265
8 | NCI-H2347 | 0.754 | 0.145 | 0.753 | 0.408 | 0.6 | 0.741 | 0.862 | 0.864 | 0.918 | 0.966 | 0.468 | 0.415 | 0.442 | 0.365 | 0.959 | 1.04 | 0.943 | 0.951 | 0.871 | 0.386
